Results reported in US20160199361A1, “Method of Inducing An Anti-Retroviral Immune Response By Counter-Acting Retro-Virus Induced Anti-Apoptosis” (RUTGERS, THE STATE UNIVERSITY OF NEW JERSEY, priority 2013, published 2016).
Entries after “also recorded” stand apart in the source; their conditions may differ.

Assays:
[1] = tested on: clinical isolates of HIV-1; test: HIV-1 p24 and HIV-1 RNA in isolate-infected, long-term replenished primary cell (PBMC) cultures; assay type: cell-based; conditions: for number of infective virions produced: use without interruption for up to three weeks, unchanged at least three months after discontinuation; for p24 relative to controls: within two weeks, PBMCs stably infected with clinical isolates
Protocol: Reagents and cells. Drug-grade deferiprone was kindly provided by Apotex (Toronto, Canada). PBMCs were isolated from the blood of healthy donors, per an IRB-approved protocol, and stimulated overnight with phytohemagglutinin (PHA) and human IL-2. Stimulated cells were pelleted and resuspended for culture at a final concentration of 0.5×10^6 cells/ml in PHA-free RPMI 1640 medium containing 10% fetal calf serum (v/v), 100 units/ml penicillin G, 100 μg/ml streptomycin, 2 mM […], and 3.5 ng/ml human IL-2 (Medium B). Cultures were incubated at 37° C., 5% CO2, and 95% humidity.
To obtain clinical isolates of HIV-1, donors were consented to provide blood samples per an IRB-approved protocol. For infection, 5×10^6 uninfected stimulated PBMCs were co-cultured with 10×10^6 PBMCs from one of the HIV-infected donors in Medium B. On day 3, half of the supernatant was removed and replenished with an equal volume of fresh Medium B. On day 7, the medium was likewise replenished and 7.5×10^6 stimulated uninfected PBMCs were added. On days 10, 17, and 24, half of the supernatant was replenished. On days 14, 21, and 28, stimulated uninfected PBMCs were added. Cells were harvested when p24 reached 250 pg/ml, cryopreserved in freezing medium (90% fetal calf serum, 10% dimethyl sulfoxide), and stored in liquid nitrogen as infected PBMC stock. Cell-free supernatants were stored at −80° C.
(§1) To establish persistent infection of cultured PBMCs, uninfected cells (5×10^6 cells) and infected PBMC stock (0.5×10^6 cells) were co-incubated in a 25 ml culture flask at a final concentration of 0.22×10^6 cells/ml. Cultures were allowed to establish productive infection, defined by medium p24 at or above 250 pg/ml, and deferiprone was added. Cultures were replenished with Medium B and freshly isolated uninfected PBMCs on alternate days. For replacement of Medium B, half of the supernatant was gently exchanged without disturbing the cells, and the drug concentration was adjusted appropriately. For replacement with freshly isolated, stimulated and uninfected PBMCs, half of the cells and supernatant were removed and replaced with 2.5×10^6 cells in the proper volume of Medium B, with adjustment of the drug concentration. Cell-free supernatants were saved for p24 and viral RNA measurements.
(§2) Detection of p24, viral RNA, and viral DNA. p24 core antigen in the supernatant was quantified by ELISA (Retrotek HIV-1 p24™; ZeptoMetrix Corp.; Buffalo, N.Y.). HIV-1 RNA copy number in the supernatant of PBMC cultures and in plasma of patients enrolled in the exploratory deferiprone trial was determined with a PCR-based and FDA-approved assay (Amplicor HIV-1 Monitor™; Roche Diagnostics Corp.; Indianapolis, Ind.). For clinical samples, the assay was used per the Standard Specimen Processing Procedure (sensitivity limit 400 copies/ml); for cell culture samples, the assay was used in both the Standard Specimen Processing and the UltraSensitive Specimen Processing Procedure (sensitivity limit 50 copies/ml). The Roche Amplicor HIV-1 DNA Test (Roche Diagnostics Corp.; Indianapolis, Ind.) was used for qualitative detection of HIV-1 DNA.

[2] = tested on: uninfected PBMCs; test: Apoptotic DNA fragmentation (TUNEL) in non-replenished short-term uninfected PBMC cultures; assay type: cell-based, human; conditions: 30 μM, 144 hours
Protocol: (§3) Reagents and cells. Drug-grade deferiprone was kindly provided by Apotex (Toronto, Canada). PBMCs were isolated from the blood of healthy donors, per an IRB-approved protocol, and stimulated overnight with phytohemagglutinin (PHA) and human IL-2. […] Cultures were incubated at 37° C., 5% CO2, and 95% humidity. DNA fragmentation assay. Apoptotic DNA fragmentation was quantified flow-cytometrically, using a TUNEL (terminal deoxynucleotide transferase dUTP nick end-labeling) assay (APO-BRDU™; Phoenix Flow Systems; San Diego, Calif.).

[3] = tested on: PBMCs acutely infected with HIV-1; test: Apoptotic DNA fragmentation (TUNEL) in non-replenished short-term PBMC cultures infected with HIV-1 isolate; assay type: cell-based, human
Protocol: as §3

[4] = tested on: infected T-cell lines; test: Suppression of HIV-1 generation and selective induction of apoptosis in infected T-cell lines; assay type: cell-based
[5] = tested on: PBMCs; test: Cell viability and apoptotic volume decrease by trypan blue image analysis in replenished PBMC cultures; assay type: cell-based, human; conditions: 200 μM
Protocol: Quantitation of cell number, viability, diameter, and apoptotic volume decrease. These parameters were measured in PBMC cultures by computerized image analysis of trypan blue exclusion (VI-CELL™; Beckman Coulter; Fullerton, Calif.).

[6] = tested on: HIV-1; test: Exploratory pilot trial: plasma HIV-1 RNA in HIV-1-infected treatment-naive persons; assay type: in vivo, human
Protocol: as §2
Two oral dose levels of deferiprone were tested, 33 mg/kg (33 mg/kg QD on days 1 and 7, and 33 mg/kg TID on days 2-6 [seven asymptomatic HIV-infected antiretroviral-naive persons]) and 50 mg/kg (50 mg/kg QD on days 1 and 7, and 50 mg/kg TID on days 2-6 [six healthy volunteers and seven asymptomatic HIV-infected antiretroviral-naive persons, four of whom completed the treatment period]).
Each cohort was unblinded only at study completion. […] Secondary parameters included pharmacokinetic variables (e.g. peak serum concentration) in serum, drawn after initial drug ingestion at fixed hours (0, 0.5, 1, 1.5, 2, 3, 4, 6, 9, 12). […] Viral load was measured as described above.
For the cell culture experiments with deferiprone and the exploratory clinical trial, descriptive statistics were generated using Microsoft Excel 2011. In the exploratory trial, outcome analysis was performed to assess the intercohort and intraindividual virological response to deferiprone, using Student's t-test for log10-based analysis of the time-specified differentials (Δ log) between the cohort identified medians (±standard error of the mean [SEM]) generated from the multiple measurements per subject on treatment minus before treatment. (‘response’ in the first stage of the protocol) and off treatment minus before treatment (‘rebound’ in the second stage of the treatment). P<0.05 was used as criterion for statistical significance. […] To assess the in vivo antiretroviral activity of deferiprone in a hypothesis-independent manner, the Δ log of the HIV-1 RNA levels achieved in the first and the second stage of the protocol was analyzed after post-treatment segregation into ‘responders’ and ‘non-responders’ per the discontinuation trial design (DTD).

[7] = tested on: HIV-1 DNA; test: Qualitative detection of HIV-1 DNA in infected replenished PBMC cultures; assay type: cell-based; conditions: 200 μM, 10 days of post-cessation monitoring
Protocol: as §1
Detection of p24, viral RNA, and viral DNA. p24 core antigen in the supernatant was quantified by ELISA (Retrotek HIV-1 p24™; ZeptoMetrix Corp.; Buffalo, N.Y.). HIV-1 RNA copy number in the supernatant of PBMC cultures and in plasma of patients enrolled in the exploratory deferiprone trial was determined with a PCR-based and FDA-approved assay (Amplicor HIV-1 Monitor™; Roche Diagnostics Corp.; Indianapolis, Ind.). […]

[8] = tested on: HIV-1; conditions: zidovudine monotherapy, reference range; cited from earlier work

**Q.** What does the source list for Cc1cc(C2CCCCC2)n(O)c(=O)c1 [ciclopirox]?
**A.** number of infective virions produced [1]: undetectable levels; cells with fragmented DNA (apoptotic), uninfected treated cultures [2]: 24.1±3.2%; cells with fragmented DNA (apoptotic), infected treated cultures ([3]; 30 μM, 144 hours after inoculation): 71.8±8.8%

**Q.** What does the source list for Cc1c(O)c(=O)ccn1C [deferiprone, 3-hydroxy-1,2-dimethylpyridin-4(1H)-one]?
**A.** rate of viral RNA rebound after cessation of drug ([1]; 100 μM, 35 days of treatment): +0.24 log10/ml/day; decrease of viral copy number versus set-point of controls ([1]; 100 μM, infected replenished cultures, weeks of treatment): decreased by just one log; p24 relative to controls ([1]; 100 μM): ≤ 10 % of controls; viral RNA nadir ([1]; 200 μM): 10^3 copies/ml; reduction of viral RNA copies versus infected untreated controls ([1]; 200 μM, 16-day treated cultures): reduced by three orders of magnitude; re-emergence of productive infection off-treatment ([1]; 200 μM, after 90 days off-treatment): no re-emergence of productive infection; decline of viral copy number ([1]; 200 μM, continuous treatment): falling by three logs; time to reach nadir of <10^3 copies/ml ([1]; 200 μM, depending on isolate - primary cell combination): 2-4 weeks; HIV-1 RNA rebound after drug discontinuation ([1]; 200 μM, off drug, replenished cultures): viral RNA rebound is absent off drug; also recorded: did not rebound; viral RNA after continued observed decline ([1]; 200 μM, post-treatment): < 10^2 copies/ml; p24 relative to controls ([1]; 200 μM): ≤ 10 % of controls; on-drug rate of viral RNA decline ([1]; 200 μM, appears to continue up to five days post cessation): −0.04 log10/ml/day; time for post-treatment rebound to reacquire set-point ([1]; after cessation of 100 μM): ≤ 72 h; p24 expression and viral copy number ([1]; below 100 μM): marginally affected; viral breakthrough ([1]; month-long monotherapy): did not elicit viral breakthrough; number of infective virions produced [1]: undetectable levels; concentration required for effective suppression of HIV-1 generation and selective induction of apoptosis [4]: at least 150 μM; apoptotic volume decrease [5]: not detectable; viability (trypan blue) [5]: ≥ 95%; Δ log10 HIV-1 RNA, acute decline coinciding with peak concentrations ≧150 μM ([6]; 50 mg/kg po TID group): −0.44±0.1 log10; Δ log10 HIV-1 RNA D7 vs. D1, subjects with acute viral load decline ([6]; Group A, the 6 of 7 with decline): −0.42±0.05 log10; subjects with acute viral load decline ([6]; Group A, ≧150 μM in serum): 6 of 7; Δ log10 HIV-1 RNA D7 vs. D1 ([6]; Group A, ≧150 μM in serum, 33 or 50 mg/kg po TID, N=7): −0.40±0.1 log10; Δ log10 HIV-1 RNA D7 vs. D1 ([6]; Group B, did not achieve ≧150 μM in serum, deferiprone N=4): +0.17±0.07 log10; difference responders vs non-responders, Δ log10 D7 vs. D1 ([6]; end of first stage, 6 responders, 5 non-responders): 0.64 log10; difference responders vs non-responders, Δ log D53 vs. D1 ([6]; end of second stage, 5 responders, 5 non-responders, off drug): 0.54 log; duration of persistent off-drug suppression as multiple of drug half-life ([6]; off-drug, human): ≥ 200 times the half-life; antiretrovirally effective in vivo threshold (serum concentration) ([6]; serum, 11 treated subjects, P=0.0152 Fisher's Exact test): ≥ 150 µM; acute responders that did not reacquire viral load baseline ([6]; seven weeks post-treatment after one-week pulse): 80%; HIV-1 DNA in post-treatment cultures [7]: either negative or at the lower limit of detectability; induced apoptosis in infected versus uninfected PBMCs ([3]; 200 μM, non-replenished short-term cultures): significantly (P≦0.009) exceeded that in uninfected PBMCs

**Q.** Which “viral load decline on monotherapy” value [8] does the source give for Cc1cn([C@H]2C[C@H](N=[N+]=[N-])[C@@H](CO)O2)c(=O)[nH]c1=O [zidovudine] here?
**A.** −0.3 log10
